Reference: US10330673B2, “Fluorescent chemical sensor for biological amines” (The Curators of the University of Missouri, priority 2013, dated 2019)

Assays:
[1] = Fluorescence titration of sensor with epinephrine; format: binding
Procedure: (§1) Fluorescence spectra were recorded on a Shimadzu RF-5301 PC spectrofluorometer at 37° C. A 1 mg/mL stock solution of I-2 in DMSO was prepared. A stock solution of I-2 in buffer (1×10^−5 M, 25 mM HEPES, 50 mM Na2S2O3, pH=5.0) was prepared. Norepinephrine, dopamine, epinephrine, and glutamate stock solutions were prepared by separately dissolving the analytes at the concentration to be used in the titration with the buffered stock solution of I-2 (thus avoiding dilution of I-2 during the experiment). I-2 was titrated with aliquots of analyte solution. The sensor was excited at 488 nm with slit widths of 5 nm.
(§2) Fluorescence spectra were recorded on a Shimadzu RF-5301 PC spectrofluorometer at 37° C. A separate 1 mg/mL stock solution of each coumarin-3-aldehyde derivative in DMSO was prepared. An aqueous stock solution of each derivative (10 μM) in buffer (25 mM HEPES, 50 mM Na2S2O3, pH=5.0) was prepared. Norepinephrine, dopamine, glutamate, and epinephrine stock solutions were prepared by separately dissolving the solid analytes at the concentration to be used in the titration with the buffered stock solutions described above and thus, avoiding dilution of the sensor during the experiment. The benzene-based NS521 derivatives were excited at 488 nm. The thiophene-based derivatives were excited at 515 nm.

[2] = Fluorescence response mode toward catecholamines; format: binding; settings: catecholamines norepinephrine and dopamine
[3] = Fluorescence quantum yield, unbound fluorophore; format: physicochemical; settings: no amine guest (sensor alone)
Procedure: Steady-state fluorescence spectroscopic studies were performed using a Horiba Scientific Fluorolog-3 Model FL3C-111 spectrofluorometer and data was collected and analyzed using HJY FluorEssence™ 3.5.1.20 software package. UV-visible spectra were obtained on a Varian Cary 1E UV-visible spectrophotometer. A stock solution of each benzene- or thiophene-based coumarin-3-aldehyde derivative (1 μM) in buffer (25 mM HEPES, 50 mM Na2S2O3, pH=5.0) was prepared. Each solution contained 1% (v/v) DMSO as a cosolvent except as noted. The slit width was 2 nm for both excitation and emission. The bound benzene- and thiophene-coumarin-3-aldehyde derivatives contained 500 mM glutamate (pH=5.0).
To determine the relative quantum yield of fluorescence (Φfl) for the benzene-based derivatives, a 1.0 μM solution of fluorescein (absolute Φfl=0.85) in 0.1 N NaOH (pH 13) was used as a fluorescence standard. The unbound derivatives were excited at 473 nm and the bound derivatives were excited at 488 nm. To determine the relative quantum yield of fluorescence (Φfl) for the thiophene-based derivatives, a 1.0 μM solution of rhodamine B (absolute Φfl=0.31) in water (pH 7) was used as a fluorescence standard. The unbound derivatives were excited at 473 nm and the bound derivatives were excited at 515 nm. Quantum yields were obtained in triplicate and calculated as per the following equation: […]

[4] = Fluorescence quantum yield of sensor bound to norepinephrine; format: physicochemical
[5] = tested on: NE-enriched chromaffin cells; assay: Fixed-cell staining with I-2 and anti-PNMT antibody, NE-enriched cells; format: cell-based, bovine; settings: 1 μM, fixed in 4% paraformaldehyde, visualized at 525 nm
Source text: To further validate the selectivity of the inventive sensor, the inventive detection method is validated with an established procedure in which phenylethanolamine N-methyltransferase (PNMT) is stained with an antibody and visualized with a Cy3-conjugated secondary antibody. It has been shown that epinephrine-enriched cell populations gave the highest level of PNMT staining, while norepinephrine-enriched populations gave lower staining (ca. 20% of that with epinephrine-enriched cells). For this experiment, three populations of chromaffin cells (norepinephrine-enriched, epin ephrine-enriched, and mixed) were stained with Compound I-2 and fixed in 4% paraformaldehyde. The fixed cells were stained with the anti-PNMT and secondary antibodies.
Chromaffin cells were isolated from bovine adrenal glands as previously described. […]
NE-enriched cells, EP-enriched cells and mixed cells stained with I-2 (1 μM) and plated on 0.0025% Poly (1-lysine) coated cover slips, after three washed with pre-warmed phosphate-buffered saline (pH=7.4, PBS), were fixed in 4% paraformaldehyde (Sigma, St. Louis, Mo., USA) in PBS for 60 min at room temperature (RT), followed by 6 min in methanol chilled to −20° C. […] After three washed in PBS, bound antibody was detected using Cy™3-conjugated AffiniPure Donkey Anti-Rabbit (1:150 dilution, Jackson ImmunoResearch Laboratories, Inc, Nest Grove, Pa., 19390). […]

[6] = Fluorescence titration of sensor with glutamate; format: binding; settings: for Ka: pH 5.0, 37° C.
Procedure: as §1, §2

[7] = Table 2, analyte glutamate, benzene-based compounds I, excited at 488 nm

CCN(CC)c1ccc2c(-c3ccc(OC)cc3)c(C=O)c(=O)oc2c1 [Compound I-2, 7-diethylamino-3-formyl-4-(4′-methoxyphenyl)coumarin]
Ka ([1]; amine guest epinephrine, fluorescence spectroscopy, λex = 488 nm, λem = 521 nm, pH 5.0, 37° C.): 0 M⁻¹
interaction with secondary amines such as epinephrine ([1]; in words): does not interact
mode of fluorescence response [2]: turn-on fluorescent sensor
Quantum Yield (Φ) [3]: 0.0029
Quantum Yield (Φ) [4]: 0.0033
staining of fixed cells by sensor [5]: stain brightly
F.E. [6, 7]: 7.82
Ka [6, 7]: 9.63 M⁻¹
Ka ([6]; amine guest glutamate, fluorescence spectroscopy, λex = 488 nm, λem = 521 nm): 10 M⁻¹
Isat/Io (λex = 488 nm) ([6]; amine guest glutamate, intensity at saturation from fit to binding isotherm): 7.8
